Data: patent US20090312349A1, “ANTI-INFLAMMATORY MEDICAMENTS” (priority 2004, published 2009)

Experiments:
[1] = biological target: phosphorylated p-38-alpha kinase (Homo sapiens, UniProt Q16539); assay: P-38 alpha kinase assay P1; format: biochemical; settings: Method P1; 2 h pre-incubation before ATP
KDR kinase [2] = biological target: T1, KDR kinase (Homo sapiens, UniProt P35968, DEL940-989/E990V); assay: KDR kinase assay K1; format: biochemical; settings: for inhibition at 10 µM: read-out: Results, % @ concentration μM, Method K1; for IC50: Method K1
T1 sequence (P35968 with tags, fused parts or gaps DEL940-989/E990V): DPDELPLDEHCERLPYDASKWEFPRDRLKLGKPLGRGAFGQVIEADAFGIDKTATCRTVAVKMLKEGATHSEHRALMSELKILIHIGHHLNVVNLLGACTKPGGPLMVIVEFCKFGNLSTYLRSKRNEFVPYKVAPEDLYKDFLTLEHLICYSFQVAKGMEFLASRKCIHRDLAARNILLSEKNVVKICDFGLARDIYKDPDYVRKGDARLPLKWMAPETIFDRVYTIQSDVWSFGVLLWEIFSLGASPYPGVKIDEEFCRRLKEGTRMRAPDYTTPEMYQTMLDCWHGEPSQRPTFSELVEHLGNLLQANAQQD
Description: (§1) IC50 values were calculated from a series of percent inhibition values determined at a range of inhibitor concentrations using software routines as implemented in the GraphPad Prism software package.

B-Raf(V599E) kinase = B-Raf(V599E) kinase (Homo sapiens, UniProt P15056, V600E); assay: B-Raf(V599E) kinase assay B1; format: biochemical; settings: for inhibition at 1 µM: read-out: Results, % @ concentration μM; for IC50: Method B1, construct 1
Sequence of B-Raf(V599E) kinase (P15056 with tags, fused parts or gaps V600E): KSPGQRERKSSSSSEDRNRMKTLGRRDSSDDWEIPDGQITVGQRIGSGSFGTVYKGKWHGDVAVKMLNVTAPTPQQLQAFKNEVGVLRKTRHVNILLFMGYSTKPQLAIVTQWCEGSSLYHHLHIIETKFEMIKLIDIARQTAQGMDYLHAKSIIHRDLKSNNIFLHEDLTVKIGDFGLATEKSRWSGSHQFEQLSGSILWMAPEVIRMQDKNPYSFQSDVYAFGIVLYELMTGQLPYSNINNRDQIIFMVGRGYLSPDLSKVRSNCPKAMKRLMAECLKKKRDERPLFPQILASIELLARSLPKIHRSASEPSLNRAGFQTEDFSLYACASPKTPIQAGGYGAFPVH
Description: The test compounds were incubated with the reaction mixture at 30° C. for 2 h. […] The reaction rate was calculated using the 1.5 h to 2.5 h time frame. […] IC50 values were calculated from a series of percent inhibition values determined at a range of inhibitor concentrations using software routines as implemented in the GraphPad Prism software package.

Abl kinase [3] = biological target: T2, Abl kinase (Homo sapiens, UniProt P00519); assay: Abl kinase assay A1; format: biochemical; settings: for inhibition at 10 µM: read-out: Results, % @ concentration μM, Method A1
T2 sequence (P00519 229-512): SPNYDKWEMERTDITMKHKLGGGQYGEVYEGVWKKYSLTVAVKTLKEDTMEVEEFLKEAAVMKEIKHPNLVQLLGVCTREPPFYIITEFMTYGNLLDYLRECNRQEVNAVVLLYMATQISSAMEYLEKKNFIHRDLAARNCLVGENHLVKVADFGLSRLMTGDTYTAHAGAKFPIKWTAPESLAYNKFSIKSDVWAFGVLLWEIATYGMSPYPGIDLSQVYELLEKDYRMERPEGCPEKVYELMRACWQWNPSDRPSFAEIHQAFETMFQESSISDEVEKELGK
Description: as §1

[4] = biological target: T3, phospho p-38 alpha kinase (Homo sapiens, UniProt Q16539); assay: P-38 alpha kinase assay (spectrophotometric, pyruvate kinase/lactate dehydrogenase coupled); format: biochemical; settings: Table 5; for IC50: assay not named, read-out: uM
T3 construct: purchased Panvera
T3 sequence (Q16539 whole entry): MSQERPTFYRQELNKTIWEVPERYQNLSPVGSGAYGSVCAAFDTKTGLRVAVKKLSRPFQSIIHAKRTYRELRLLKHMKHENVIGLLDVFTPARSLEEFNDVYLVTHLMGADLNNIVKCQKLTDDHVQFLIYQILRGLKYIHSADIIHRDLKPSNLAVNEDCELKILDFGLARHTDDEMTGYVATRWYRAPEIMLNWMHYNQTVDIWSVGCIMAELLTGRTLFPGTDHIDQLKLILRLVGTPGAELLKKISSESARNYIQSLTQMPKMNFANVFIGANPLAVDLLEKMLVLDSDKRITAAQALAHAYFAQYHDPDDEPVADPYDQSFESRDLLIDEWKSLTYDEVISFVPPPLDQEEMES

Abl kinase [5] = biological target: T2, Abl kinase; assay: Abl kinase assay A2; format: biochemical; settings: for IC50: Method A2, 2 h pre-incubation, 0.5 mM ATP
Description: as §1

KDR kinase [6] = biological target: T1, KDR kinase; assay: KDR kinase assay K2; settings: for inhibition at 1 µM: read-out: Results, % @ concentration μM
[7] = Method A1, read-out: Results, μM (IC50)

Sequence of phosphorylated p-38-alpha kinase (Q16539 1-360 isoform Q16539-2): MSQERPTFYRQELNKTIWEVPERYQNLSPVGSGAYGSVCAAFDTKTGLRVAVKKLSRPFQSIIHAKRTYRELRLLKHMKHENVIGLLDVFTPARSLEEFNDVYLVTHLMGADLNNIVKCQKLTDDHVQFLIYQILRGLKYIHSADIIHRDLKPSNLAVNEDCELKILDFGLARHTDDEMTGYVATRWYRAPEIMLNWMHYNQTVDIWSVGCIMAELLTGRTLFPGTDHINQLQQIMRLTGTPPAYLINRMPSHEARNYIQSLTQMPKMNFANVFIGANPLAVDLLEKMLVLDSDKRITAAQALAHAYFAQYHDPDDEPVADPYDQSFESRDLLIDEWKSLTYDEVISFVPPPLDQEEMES

Compound	IC50 [1] [µM]	inhibition at 10 µM (KDR kinase [2]) [%]	inhibition at 10 µM (Abl kinase [3]) [%]	IC50 [4] [µM]	IC50 (KDR kinase [2]) [µM]	IC50 (B-Raf(V599E) kinase) [µM]	also measured
O=C(O)Cc1cccc(-n2nc(-c3ccccc3F)cc2NC(=O)Nc2cccc(Cl)c2Cl)c1 [Example 433, 2-(3-(5-(3-(2,3-dichlorophenyl)ureido)-3-(2-fluorophenyl)-1H-pyrazol-1-yl)phenyl)acetic acid]	0.007	63	39	–	–	–	inhibition at 1 µM (B-Raf(V599E) kinase): 37%
O=C(O)Cc1cccc(-n2nc(C3CCCC3)cc2NC(=O)Nc2cccc(Cl)c2Cl)c1 [Example 434, 2-(3-(3-cyclopentyl-5-(3-(2,3-dichlorophenyl)ureido)-1H-pyrazol-1-yl)phenyl)acetic acid]	0.004	–	–	1.9	2.9	0.006	IC50 (Abl kinase [3]; [7]): 3.9 µM
O=C(O)Cc1ccc(-n2nc(C3CCCC3)cc2NC(=O)Nc2cccc(Cl)c2Cl)cc1 [Example 441, 2-(4-(3-cyclopentyl-5-(3-(2,3-dichlorophenyl)ureido)-1H-pyrazol-1-yl)phenyl)acetic acid]	0.005	62	44	–	–	0.037	–
NC(=O)Cc1cccc(-n2nc(C3CCCC3)cc2NC(=O)Nc2cccc(Cl)c2Cl)c1 [Example 446, 1-(1-(3-(2-amino-2-oxoethyl)phenyl)-3-cyclopentyl-1H-pyrazol-5-yl)-3-(2,3-dichlorophenyl)urea]	0.005	–	–	–	1.5	0.016	IC50 (Abl kinase [5]): 4.8 µM
O=C(Nc1cccc(Cl)c1Cl)Nc1cc(-c2cccs2)nn1-c1cccc(CC(=O)N2CC[C@H](O)C2)c1 [Example 463, 1-(2,3-dichlorophenyl)-3-(1-(3-(2-((S)-3-hydroxypyrrolidin-1-yl)-2-oxoethyl)phenyl)-3-(thiophen-2-yl)-1H-pyrazol-5-yl)urea]	0.025	47	44	0.056	–	–	inhibition at 1 µM (B-Raf(V599E) kinase): 23%
NC(=O)Cc1ccc(-n2nc(-c3ccccc3F)cc2NC(=O)Nc2cccc(Cl)c2Cl)cc1 [Example 466, 1-(1-(4-(2-amino-2-oxoethyl)phenyl)-3-(2-fluorophenyl)-1H-pyrazol-5-yl)-3-(2,3-dichlorophenyl)urea]	0.038	50	–	0.007	–	–	inhibition at 1 µM (B-Raf(V599E) kinase): 24%; IC50 (Abl kinase [3]; [7]): 1.2 µM
NC(=O)Cc1ccc(-n2nc(C3CCCC3)cc2NC(=O)Nc2cccc(Cl)c2Cl)cc1 [Example 467, 1-(1-(4-(2-amino-2-oxoethyl)phenyl)-3-cyclopentyl-1H-pyrazol-5-yl)-3-(2,3-dichlorophenyl)urea]	0.011	–	–	0.119	2.9	0.032	IC50 (Abl kinase [3]; [7]): 4.8 µM
CC(C)(C)c1cc(NC(=O)Nc2cccc(Cl)c2Cl)n(-c2ccc(CC(=O)N3CC[C@H](O)C3)cc2)n1 [Example 478, (S)-1-(3-tert-butyl-1-(4-(2-(3-hydroxypyrrolidin-1-yl)-2-oxoethyl)phenyl)-1H-pyrazol-5-yl)-3-(2,3-dichlorophenyl)urea]	0.006	99	91	–	–	0.028	–
NC(=O)Cc1cccc(-c2ccc(C(F)(F)F)cc2NC(=O)Nc2ccc(-c3cccc4c3CNC4=O)cc2)c1 [Example 483, [1,1′-biphenyl]-2′-(3-(4-(1-oxoisoindolin-4-yl)phenyl)ureido)-4′-(trifluoromethyl)-3-acetic acid amide]	0.027	–	–	0.27	0.21	0.014	IC50 (Abl kinase [3]; [7]): 11.3 µM
O=C(Cc1cccc(-n2nc(C3CCCC3)cc2NC(=O)Nc2cccc(Cl)c2Cl)c1)NCC(O)CO (stereo not shown) [Example 487, 1-(3-cyclopentyl-1-(3-(2-(2,3-dihydroxypropylamino)-2-oxoethyl)phenyl)-1H-pyrazol-5-yl)-3-(2,3-dichlorophenyl)urea]	0.006	–	–	0.038	–	–	inhibition at 1 µM (KDR kinase [6]): 20%
CC(Cc1cccc(-n2nc(-c3ccccc3F)cc2NC(=O)Nc2cccc(Cl)c2Cl)c1)C(N)=O (stereo not shown) [Example 489, 1-(1-(3-(3-amino-2-methyl-3-oxopropyl)phenyl)-3-(2-fluorophenyl)-1H-pyrazol-5-yl)-3-(2,3-dichlorophenyl)urea]	–	–	–	0.52	–	–	inhibition at 1 µM (KDR kinase [6]): 25%
CC(C)(C)c1cc(NC(=O)Nc2ccc(F)c(F)c2F)n(-c2cccc(CC(N)=O)c2)n1 [Example 491, 1-(1-(3-(2-amino-2-oxoethyl)phenyl)-3-tert-butyl-1H-pyrazol-5-yl)-3-(2,3,4-trifluorophenyl)urea]	0.013	77	–	–	–	0.007	inhibition at 10 µM (Abl kinase [5]; read-out: Results, % @ concentration μM): 78%
CC(C)(C)c1cc(NC(=O)Nc2ccc(F)c(F)c2F)n(-c2ccc(CC(=O)O)cc2)n1 [Example 492, 2-(4-(3-tert-butyl-5-(3-(2,3,4-trifluorophenyl)ureido)-1H-pyrazol-1-yl)phenyl)acetic acid]	0.008	50	49	0.04	–	0.028	–
CC(C)(C)c1cc(NC(=O)Nc2cc(F)c(F)cc2F)n(-c2cccc(CC(N)=O)c2)n1 [Example 494, 1-(1-(3-(2-amino-2-oxoethyl)phenyl)-3-tert-butyl-1H-pyrazol-5-yl)-3-(2,4,5-trifluorophenyl)urea]	0.068	82	96	0.67	–	0.007	–
CC(C)(C)c1cc(NC(=O)Nc2ccc(F)cc2F)n(-c2ccc(CC(N)=O)cc2)n1 [Example 498, 1-(1-(4-(2-amino-2-oxoethyl)phenyl)-3-tert-butyl-1H-pyrazol-5-yl)-3-(2,4-difluorophenyl)urea]	0.041	60	48	–	–	0.074	% @ concentration, uM ([4]; @ 1 uM): 25% @1
CC(C)(C)c1cc(NC(=O)Nc2ccc(F)cc2F)n(-c2cccc(C#N)c2)n1 [Example 499, 1-(3-tert-butyl-1-(3-cyanophenyl)-1H-pyrazol-5-yl)-3-(2,4-difluorophenyl)urea]	0.046	–	88	–	0.4	0.026	% @ concentration, uM ([4]; @ 0.1 uM): 78%; % @ concentration, uM ([4]; @ 1 uM): 95%
NC(=O)Cc1cccc(-n2nc(-c3cccs3)cc2NC(=O)Nc2cccc(Oc3cccnc3)c2)c1 [Example 502, 1-(1-(3-(2-amino-2-oxoethyl)phenyl)-3-(thiophen-2-yl)-1H-pyrazol-5-yl)-3-(3-(pyridin-3-yloxy)phenyl)urea]	–	–	–	–	–	–	IC50 (KDR kinase [6]): 1300 nM; IC50 (Abl kinase [3]; [7]): 3.1 µM
CC(C)(C)c1cc(NC(=O)Nc2cccc(Oc3cnccn3)c2)n(-c2cccc(CC(N)=O)c2)n1 [Example 504, 1-(1-(3-(2-amino-2-oxoethyl)phenyl)-3-tert-butyl-1H-pyrazol-5-yl)-3-(3-(pyrazin-2-yloxy)phenyl)urea]	0.082	–	–	–	0.049	0.043	IC50 (Abl kinase [3]): 0.063 µM
CNC(=O)c1cc(Oc2ccc(NC(=O)Nc3cc(C(C)(C)C)nn3-c3cccc(CC(N)=O)c3)cc2)ccn1 [Example 506, 1-(1-(3-(2-amino-2-oxoethyl)phenyl)-3-tert-butyl-1H-pyrazol-5-yl)-3-(4-(2-(methylcarbamoyl)pyridin-4-yloxy)phenyl)urea]	0.009	–	–	0.042	0.021	0.02	IC50 (Abl kinase [5]): 0.0066 µM
CC(C)(C)c1cc(NC(=O)Nc2ccc(-c3cccc4c3CNC4=O)cc2)n(-c2cccc(CC(N)=O)c2)n1 [Example 510, 1-(1-(3-(2-amino-2-oxoethyl)phenyl)-3-tert-butyl-1H-pyrazol-5-yl)-3-(4-(1-oxoisoindolin-4-yl)phenyl)urea]	0.12	–	–	0.47	0.007	0.21	IC50 (Abl kinase [5]): 0.062 µM
Cn1c(=O)c(-c2cccc(NC(=O)Nc3cc(C(C)(C)C)nn3-c3cccc(CC(N)=O)c3)c2)cc2cncnc21 [Example 513, 1-(1-(3-(2-amino-2-oxoethyl)phenyl)-3-tert-butyl-1H-pyrazol-5-yl)-3-(3-(8-methyl-7-oxo-7,8-dihydropyrido[2,3-d]pyrimidin-6-yl)phenyl)urea]	0.012	–	–	0.41	–	0.008	IC50 (Abl kinase [5]): 0.023 µM
Cc1ccc(NC(=O)Nc2cc(C(C)(C)C)nn2-c2cccc(CC(N)=O)c2)cc1Nc1nccc(-c2cccnc2)n1 [Example 516, 1-(1-(3-(2-amino-2-oxoethyl)phenyl)-3-tert-butyl-1H-pyrazol-5-yl)-3-(4-methyl-3-(4-(pyridin-3-yl)pyrimidin-2-ylamino)phenyl)urea]	–	–	–	0.45	–	0.022	IC50 (Abl kinase [5]): 0.0018 µM
